Read-outs that look alike come from different tables or passages of the source.
Columns and labels:
female low libido = conditions: cited from earlier work; for side effects: in vivo
[1] = system: penis or female genitalia; assay: Topical or transdermal administration of magnesium sulfate or forskolin to male and female subjects
Excerpt: The composition is generally applied generously to the penis and massaged thoroughly. In females, the composition may be applied to the female genitals and massaged. In various embodiments, the composition may also be applied on a penis or sex toy or suppository inserted into the vagina or ano-rectal region, or as a condom lubricant, penile lubricant, vaginal lubricant or anal lubricant.

ED = conditions: cited from earlier work
[2] = cited from earlier work

## CCCC[C@H](NC(C)=O)C(=O)N[C@H]1CC(=O)NCCCC[C@@H](C(=O)O)NC(=O)[C@H](Cc2c[nH]c3ccccc23)NC(=O)[C@H](CCCN=C(N)N)NC(=O)[C@@H](Cc2ccccc2)NC(=O)[C@H](Cc2cnc[nH]2)NC1=O [Bremelanotide]
Female low libido
  side effects: Nausea is a common side effect
Female low libido; self-administered injection about 45 minutes before a sexual encounter
  effect on number of satisfying sexual events compared to placebo: minimal effect

## O=c1[nH]c2ccccc2n1CCN1CCN(c2cccc(C(F)(F)F)c2)CC1 [flibanserin]
Female low libido
  side effects: sleepiness and fainting
Female low libido; oral pill taken daily
  effect compared to placebo: minimal compared to placebo

## O=S(=O)([O-])[O-].[Mg+2] [magnesium sulfate]
[1]; administered topically or by transdermal delivery
  systemic side effects or drug interactions: no systemic side effects or drug interactions
[1]; topical administration
  taste of magnesium in mouth after topical administration (increased blood levels): tasted magnesium in their mouth within one minute
[1]; topical or transdermal administration, males and females
  testosterone and libido: increased testosterone with increased libido in both males and females lasting for several weeks
[1]; topical or transdermal application to the penis
  increase in penile length, size and turgidity versus control gel (KY jelly): significantly exceeds that obtained by topical or transdermal application of a control gel

## Cc1ccc(N(CC2=NCCN2)c2cccc(O)c2)cc1 [phentolamine]
ED; oral and sublingual therapies
  efficacy in ED: neither compound has demonstrated efficacy across a broad range of subjects

## CCCCC[C@H](O)/C=C/[C@H]1[C@H](O)CC(=O)[C@@H]1CCCCCCC(=O)O [alprostadil]
ED; intraurethral deposition
  efficacy in ED: not effective in all patients

## C=C[C@@]1(C)CC(=O)[C@]2(O)[C@@]3(C)[C@@H](O)CCC(C)(C)[C@@H]3[C@H](O)[C@H](OC(C)=O)[C@@]2(C)O1 [forskolin, 7beta-acetoxy-8, 13-epoxy-1a, 6β, 9a-trihydroxy-labd-14-en-11-one]
[1]; human, in vivo
  systemic side effects or drug interactions: no systemic side effects or drug interactions
[2]
  lipid solubility: lipid-soluble
[2]; water
  solubility in water: water soluble

## CN1CCc2cccc3c2[C@H]1Cc1ccc(O)c(O)c1-3 [apomorphine]
ED; oral and sublingual therapies
  efficacy in ED: neither compound has demonstrated efficacy across a broad range of subjects

## O=[N+]([O-])OCC(CO[N+](=O)[O-])O[N+](=O)[O-] [glyceryl trinitrate (GTN), glyceryl trinitrate]
ED; patches applied to the penis
  efficacy in ED and side effects: effective but produces side effects in both patient and partner
